Results taken from patent US10501421B1, “Substituted benzimidazoles as modulators of Ras signaling” (VANDERBILT UNIVERSITY, priority 2017, dated 2019).
Counter-ions that a name gives are not always drawn. Like-named read-outs stand apart in the source and are kept apart here.

Tests used:
[1] = target: Ras GEF SOS (Son of Sevenless) (Homo sapiens, UniProt Q07889); assay: SOS-mediated nucleotide exchange on Ras (BODIPY-GDP fluorescence); assay type: biochemical; conditions: SOS-mediated exchange of BODIPY-GDP for GTP on Ras
Chain of Ras GEF SOS (Son of Sevenless) (P01112 1-166 partner limits assumed, one chain of several): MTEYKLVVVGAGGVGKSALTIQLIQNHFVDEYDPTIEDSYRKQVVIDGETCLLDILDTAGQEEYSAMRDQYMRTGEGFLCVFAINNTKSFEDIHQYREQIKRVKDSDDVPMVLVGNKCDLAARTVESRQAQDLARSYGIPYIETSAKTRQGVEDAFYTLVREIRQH
Procedure, shortened: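 Exchange rates were taken from single-exponential fits of the fluorescence time course as BODIPY-GDP on Ras was replaced by GTP. Compound went in first, then GTP and SOS. Mean rates plotted against concentration gave EC50 by four-parameter dose-response fitting.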

Son of Sevenless (SOS) = target: T1, Son of Sevenless (SOS) (Homo sapiens, UniProt Q07889); assay: Binding to SOS, fluorescence polarization anisotropy (FPA) probe displacement; conditions: displacement of FITC-conjugated probe (Example 285), affinity calculated from IC50
T1 sequence (Q07889 564-1049 limits assumed): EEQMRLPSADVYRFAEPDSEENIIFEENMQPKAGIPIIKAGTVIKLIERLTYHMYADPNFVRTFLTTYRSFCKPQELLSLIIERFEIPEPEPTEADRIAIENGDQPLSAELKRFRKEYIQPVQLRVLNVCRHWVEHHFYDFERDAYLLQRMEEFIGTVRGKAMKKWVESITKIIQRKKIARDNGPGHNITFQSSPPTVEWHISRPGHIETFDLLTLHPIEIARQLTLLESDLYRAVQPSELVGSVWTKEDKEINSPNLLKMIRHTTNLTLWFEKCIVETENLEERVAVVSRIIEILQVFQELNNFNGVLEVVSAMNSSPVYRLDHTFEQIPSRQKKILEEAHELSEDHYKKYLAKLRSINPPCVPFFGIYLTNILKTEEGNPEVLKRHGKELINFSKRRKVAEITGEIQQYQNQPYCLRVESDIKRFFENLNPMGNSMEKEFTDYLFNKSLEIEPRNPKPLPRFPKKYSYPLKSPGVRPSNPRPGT
Procedure, shortened: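 Test compounds were titrated against SOS pre-bound to a fluorescein-labelled probe, with anisotropy plotted versus compound concentration. Binding affinities were derived from IC50 values obtained by four-parameter dose-response fitting.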

[2] = test system: H727 lung cancer cell lines (G12V K-Ras mutation); assay: Inhibition of cancer cell proliferation (CellTiter-Glo); assay type: cell-based; conditions: Homo sapiens, NCI-H727, 72 h, read-out: Cell proliferation activity (H727 cancer cell line proliferation IC50)
Protocol: Compounds of the present invention were measured for their ability to kill H727 lung cancer cell lines, which contain a G12V K-Ras mutation. Cell proliferation experiments were conducted in 96-well plates. Cells were plated at 1000 cells/well, incubated overnight, followed by treatment with a dose range of compound for 3 days at 37° C. Cell proliferation was assessed using a CellTiter-Glo assay (Promega) according to the manufacturer's protocol. Data were normalized to DMSO control. IC50 values were determined using a four-parameter dose-response (variable slope) equation. These assays are performed in a manner analogous to the assay disclosed in: Burns, M. C.; Sun, Q.; Daniels, R. N.; Camper, D. V.; Kennedy, J. P.; Phan, J.; Olejniczak, E. O.; Lee, T.; Waterson, A. G.; Rossanese, O. W.; Fesik, S. W. “Approach for targeting Ras with small molecules that activate SOS-mediated nucleotide exchange” Proc. Natl. Acad. Sci. 2014; 11(9): 3401-3406. PMCID: PMC3948241.

[3] = H727 cells, 3 days treatment, CellTiter-Glo

Row | IC50 [2, 3] | Structure (SMILES) | EC50 [1] | Ki (Son of Sevenless (SOS)) | IC50 [2]
1 | 1000 to 5000 nM | Cc1cc2c(nc(N3CCNCC3)n2Cc2ccc(F)c(Cl)c2)c(-c2ccccc2C(C)C)c1C [Example 109, 1-(3-chloro-4-fluorobenzyl)-4-(2-isopropylphenyl)-5,6-dimethyl-2-(piperazin-1-yl)-1H-benzo[d]imidazole] | 1000 to 5000 nM | 500 to 1000 nM | 
2 | 1000 to 5000 nM | COc1ccc(-c2c(C)c(C)cc3c2nc(N2CCNCC2)n3Cc2ccc(F)c(Cl)c2)cc1OC [Example 110, 1-(3-chloro-4-fluorobenzyl)-4-(3,4-dimethoxyphenyl)-5,6-dimethyl-2-(piperazin-1-yl)-1H-benzo[d]imidazole] | 1000 to 5000 nM | 1000 to 5000 nM | 
3 |  | Cc1cc2c(nc(NCCN)n2Cc2ccc(F)c(Cl)c2)c(-c2ccccc2)c1C [Example 111, N^1-(1-(3-chloro-4-fluorobenzyl)-5,6-dimethyl-4-phenyl-1H-benzo[d]imidazol-2-yl)ethane-1,2-diamine trifluoroacetate] | 1000 to 5000 nM | 1000 to 5000 nM | 1000 to 5000 nM
4 |  | Cc1cc2c(nc(NCCN)n2Cc2ccc(F)c(Cl)c2)c(-c2ccccc2Cl)c1C [Example 113, N^1-(1-(3-chloro-4-fluorobenzyl)-4-(2-chlorophenyl)-5,6-dimethyl-1H-benzo[d]imidazol-2-yl)ethane-1,2-diamine trifluoroacetate] | 1000 to 5000 nM | < 500 nM | 1000 to 5000 nM
5 |  | Cc1cc2c(nc(NCCN)n2Cc2ccc(F)c(Cl)c2)c(-c2c(C)nn(C)c2C)c1C [Example 114, N^1-(1-(3-chloro-4-fluorobenzyl)-5,6-dimethyl-4-(1,3,5-trimethyl-1H-pyrazol-4-yl)-1H-benzo[d]imidazol-2-yl)ethane-1,2-diamine trifluoroacetate] | 1000 to 5000 nM | 1000 to 5000 nM | 5000 to 20000 nM
6 |  | Cc1cc(-c2ccccc2Cl)c2nc(N3CCNCC3)n(Cc3ccc(F)c(Cl)c3)c2c1 [Example 118, 1-(3-chloro-4-fluorobenzyl)-4-(2-chlorophenyl)-6-methyl-2-(piperazin-1-yl)-1H-benzo[d]imidazole trifluoroacetate] | 1000 to 5000 nM | < 500 nM | 1000 to 5000 nM
7 |  | Cc1cc(-c2ccccc2F)c2nc(N3CCNCC3)n(Cc3ccc(F)c(Cl)c3)c2c1 [Example 119, 1-(3-chloro-4-fluorobenzyl)-4-(2-fluorophenyl)-6-methyl-2-(piperazin-1-yl)-1H-benzo[d]imidazole trifluoroacetate] | 1000 to 5000 nM | < 500 nM | > 20000 nM
8 |  | Cc1cc(-c2ccccc2C)c2nc(N3CCNCC3)n(Cc3ccc(F)c(Cl)c3)c2c1 [Example 120, 1-(3-chloro-4-fluorobenzyl)-6-methyl-2-(piperazin-1-yl)-4-(o-tolyl)-1H-benzo[d]imidazole trifluoroacetate] | 1000 to 5000 nM | < 500 nM | 1000 to 5000 nM
9 |  | Cc1cc(CN2CCCC2)c2nc(N3CCNCC3)n(Cc3cc(C)c(F)c(C)c3)c2c1 [Example 124, 1-(4-fluoro-3,5-dimethylbenzyl)-6-methyl-2-(piperazin-1-yl)-4-(pyrrolidin-1-ylmethyl)-1H-benzo[d]imidazole trifluoroacetate] | < 1000 nM | 1000 to 5000 nM | 1000 to 5000 nM
10 |  | Cc1cc(CN2CCCCC2)c2nc(N3CCNCC3)n(Cc3cc(C)c(F)c(C)c3)c2c1 [Example 125, 1-(4-fluoro-3,5-dimethylbenzyl)-6-methyl-2-(piperazin-1-yl)-4-(piperidin-1-ylmethyl)-1H-benzo[d]imidazole trifluoroacetate] | 1000 to 5000 nM | 1000 to 5000 nM | 1000 to 5000 nM
11 |  | Cc1cc(CN2CCC(O)CC2)c2nc(N3CCNCC3)n(Cc3cc(C)c(F)c(C)c3)c2c1 [Example 126, 1-((1-(4-fluoro-3,5-dimethylbenzyl)-6-methyl-2-(piperazin-1-yl)-1H-benzo[d]imidazol-4-yl)methyl)piperidin-4-ol trifluoroacetate] | 1000 to 5000 nM | 1000 to 5000 nM | 1000 to 5000 nM
12 |  | Cc1cc(CN2CCOCC2)c2nc(N3CCNCC3)n(Cc3cc(C)c(F)c(C)c3)c2c1 [Example 127, 4-((1-(4-fluoro-3,5-dimethylbenzyl)-6-methyl-2-(piperazin-1-yl)-1H-benzo[d]imidazol-4-yl)methyl)morpholine trifluoroacetate] | 1000 to 5000 nM | 1000 to 5000 nM | 1000 to 5000 nM
13 |  | Cc1cc(CN(C)C)c2nc(N3CCNCC3)n(Cc3cc(C)c(F)c(C)c3)c2c1 [Example 128, 1-(1-(4-fluoro-3,5-dimethylbenzyl)-6-methyl-2-(piperazin-1-yl)-1H-benzo[d]imidazol-4-yl)-N,N-dimethylmethanamine trifluoroacetate] | < 1000 nM | 500 to 1000 nM | 1000 to 5000 nM
14 |  | CNCc1cc(Cl)cc2c1nc(N1CCNCC1)n2Cc1cc(C)c(F)c(C)c1 [Example 129, 1-(6-chloro-1-(4-fluoro-3,5-dimethylbenzyl)-2-(piperazin-1-yl)-1H-benzo[d]imidazol-4-yl)-N-methylmethanamine trifluoroacetate] | < 1000 nM | < 500 nM | 1000 to 5000 nM
15 |  | Cc1cc(Cn2c(N3CCNCC3)nc3c(CN4CCCC4)cc(Cl)cc32)cc(C)c1F [Example 130, 6-chloro-1-(4-fluoro-3,5-dimethylbenzyl)-2-(piperazin-1-yl)-4-(pyrrolidin-1-ylmethyl)-1H-benzo[d]imidazole trifluoroacetate] | < 1000 nM | < 500 nM | 1000 to 5000 nM
16 |  | CCCNCc1c(C)c(C)cc2c1nc(N1CCNCC1)n2Cc1cc(C)c(F)c(C)c1 [Example 132, N-((1-(4-fluoro-3,5-dimethylbenzyl)-5,6-dimethyl-2-(piperazin-1-yl)-1H-benzo[d]imidazol-4-yl)methyl)propan-1-amine trifluoroacetate] | < 1000 nM | 1000 to 5000 nM | 1000 to 5000 nM
17 |  | Cc1cc(C2NCCc3c2[nH]c2ccccc32)c2nc(N3CCNCC3)n(Cc3cc(C)c(F)c(C)c3)c2c1 (stereo not drawn) [Example 139, 1-(1-(4-fluoro-3,5-dimethylbenzyl)-6-methyl-2-(piperazin-1-yl)-1H-benzo[d]imidazol-4-yl)-2,3,4,9-tetrahydro-1H-pyrido[3,4-b]indole trifluoroacetate] | 1000 to 5000 nM | 1000 to 5000 nM | 1000 to 5000 nM
18 |  | C=C[C@H](N)c1cc(Cl)cc2c1nc(NCCN)n2Cc1cc(C)c(F)c(C)c1 [Example 156, (S)—N^1-(4-(1-aminoallyl)-6-chloro-1-(4-fluoro-3,5-dimethylbenzyl)-1H-benzo[d]imidazol-2-yl)ethane-1,2-diamine trifluoroacetate] | < 1000 nM | < 500 nM | 1000 to 5000 nM
19 |  | Cc1cc(Cn2c(N3CCNCC3)nc3c([C@@H](N)c4ccccc4)cc(Cl)cc32)cc(C)c1F [Example 159, (S)-(6-chloro-1-(4-fluoro-3,5-dimethylbenzyl)-2-(piperazin-1-yl)-1H-benzo[d]imidazol-4-yl)(phenyl)methanamine trifluoroacetate] | < 1000 nM | < 500 nM | < 1000 nM
20 |  | CC[C@H](N)c1cc(C)cc2c1nc(N1CCNCC1)n2Cc1cc(C)c(F)c(C)c1 [Example 161, (S)-1-(1-(4-fluoro-3,5-dimethylbenzyl)-6-methyl-2-(piperazin-1-yl)-1H-benzo[d]imidazol-4-yl)propan-1-amine trifluoroacetate] | < 1000 nM | 500 to 1000 nM | 1000 to 5000 nM
